Experimental data: ChEMBL document CHEMBL3297700, “Dose-dependent inhibition of BACE-1 by the monoterpenoid 2,3,4,4-tetramethyl-5-methylenecyclopent-2-enone in cellular and mouse models of Alzheimer's disease” (J Nat Prod, 2014)
Several values for one entry are separate records, joined by “and”; a condition that tells them apart may be missing. Equal entries are not always repeated.

What was measured:
[1] = Cytotoxicity against CHO cells expressing wild-type APP assessed as cell viability at 600 uM by neutral red uptake assay relative to control; format: cell-based, Cricetulus griseus; details: chinese hamster, read-out: Activity
Mus musculus [2] = assay: In vivo inhibition of BACE-1 in triple transgenic mouse model of Alzheimer's disease assessed as reduction in brain insoluble amyloid beta-40 level administered intranasally qd for 4 days by ELISA; format: functional, organism-based
Cathepsin D = Cathepsin D (Homo sapiens, UniProt P07339); assay: Inhibition of cathepsin D in human liver using Lys-Lys-Pro-Ala-Glu-Phe-Phe-Ala-Leu-Lys as substrate by spectrofluorometric analysis; details: read-out: Ki(app)
[3] = Cytotoxicity against human SH-SY5Y cells expressing wild-type APP assessed as cell viability at 600 uM by trypan blue dye exclusion assay relative to control; format: cell-based; details: read-out: Activity
Beta-secretase 1 [4] = target: Beta-secretase 1 (Cricetulus griseus, UniProt G3IAK4); assay: Inhibition of BACE-1 in CHO cells expressing wild-type APP assessed as reduction in amyloid beta-40 production after 6 hrs by sandwich ELISA
Beta-secretase 1 [5] = target: T1, Beta-secretase 1 (Homo sapiens, UniProt P56817); assay: Inhibition of recombinant BACE-1 (unknown origin) expressed in Escherichia coli measured for 5 to 30 mins by spectrofluorometric analysis; details: read-out: Ki(app)
Mus musculus [6] = assay: Toxicity in triple transgenic mouse model of Alzheimer's disease administered intranasally qd for 4 days; format: organism-based; details: in vivo, inhaled_or_intranasal, 96 h
Mus musculus [7] = assay: In vivo inhibition of BACE-1 in triple transgenic mouse model of Alzheimer's disease assessed as reduction in brain soluble amyloid beta-40 level administered intranasally qd for 4 days by ELISA; format: functional, organism-based
Beta-secretase 1 [8] = target: T1, Beta-secretase 1; assay: Inhibition of BACE-1 in human SH-SY5Y cells expressing wild-type APP assessed as reduction in amyloid beta-40 production after 16 hrs by sandwich ELISA

T1 sequence (P56817 whole entry): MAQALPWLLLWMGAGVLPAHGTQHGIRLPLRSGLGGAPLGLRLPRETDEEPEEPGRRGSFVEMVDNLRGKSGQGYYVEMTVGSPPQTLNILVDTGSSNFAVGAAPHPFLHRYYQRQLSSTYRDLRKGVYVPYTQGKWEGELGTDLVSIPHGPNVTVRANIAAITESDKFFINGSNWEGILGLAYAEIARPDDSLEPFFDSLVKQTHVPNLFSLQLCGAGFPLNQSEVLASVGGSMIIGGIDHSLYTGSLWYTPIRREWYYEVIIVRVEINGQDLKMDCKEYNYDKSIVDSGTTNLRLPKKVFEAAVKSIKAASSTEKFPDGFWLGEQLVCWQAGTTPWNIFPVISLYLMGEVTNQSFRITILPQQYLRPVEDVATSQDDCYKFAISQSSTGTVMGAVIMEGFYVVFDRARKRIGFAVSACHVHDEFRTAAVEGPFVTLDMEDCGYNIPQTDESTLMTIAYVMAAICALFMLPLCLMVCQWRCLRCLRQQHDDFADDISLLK
Sequence of Cathepsin D (P07339 65-162 limits assumed): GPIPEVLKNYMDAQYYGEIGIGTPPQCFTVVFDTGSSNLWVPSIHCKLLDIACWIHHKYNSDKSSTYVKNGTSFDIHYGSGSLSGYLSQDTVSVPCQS
Sequence of Cathepsin D (P07339 169-412 limits assumed): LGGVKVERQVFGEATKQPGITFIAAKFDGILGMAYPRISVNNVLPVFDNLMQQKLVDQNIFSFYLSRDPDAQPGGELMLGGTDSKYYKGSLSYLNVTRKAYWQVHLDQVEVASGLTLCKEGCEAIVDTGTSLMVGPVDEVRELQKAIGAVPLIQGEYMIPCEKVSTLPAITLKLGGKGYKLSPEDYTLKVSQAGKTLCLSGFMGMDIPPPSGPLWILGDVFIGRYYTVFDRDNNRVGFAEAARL
Sequence of Beta-secretase 1 (Cricetulus griseus, UniProt G3IAK4) (G3IAK4 whole entry): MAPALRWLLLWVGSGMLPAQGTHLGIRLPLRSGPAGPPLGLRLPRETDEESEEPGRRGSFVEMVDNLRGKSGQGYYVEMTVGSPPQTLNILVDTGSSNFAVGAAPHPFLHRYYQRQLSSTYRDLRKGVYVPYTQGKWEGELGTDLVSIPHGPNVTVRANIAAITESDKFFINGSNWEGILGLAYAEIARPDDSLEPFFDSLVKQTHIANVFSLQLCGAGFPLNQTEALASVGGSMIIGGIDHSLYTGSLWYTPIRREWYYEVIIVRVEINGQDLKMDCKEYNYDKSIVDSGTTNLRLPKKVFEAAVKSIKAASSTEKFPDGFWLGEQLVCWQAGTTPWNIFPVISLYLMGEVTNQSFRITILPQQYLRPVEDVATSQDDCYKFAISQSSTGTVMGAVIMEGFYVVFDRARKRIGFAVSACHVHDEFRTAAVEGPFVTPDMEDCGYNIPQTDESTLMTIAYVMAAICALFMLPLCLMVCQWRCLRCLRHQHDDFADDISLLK

Ki (Cathepsin D): 31 µM and 30.8 µM
EC50 (Beta-secretase 1 [4]): 73 µM
Ki (Beta-secretase 1 [5]): 416 µM
EC50 (Beta-secretase 1 [8]): 217 µM
SMILES: C=C1C(=O)C(C)=C(C)C1(C)C
viability at 600 µM [1]: > 90%
inhibition (Mus musculus [2]): Dose-dependent effect
viability at 600 µM [3]: > 90%
Activity (Mus musculus [6]): Non-toxic
inhibition (Mus musculus [7]): Dose-dependent effect
